Assays:
[1] = tested on: telomerase activity in HEK293 cells; experiment: Telomerase activity (TRAPEZE Telomerase Detection Kit); format: cell-based, human; conditions: 25 μM inhibitor, FIG. 14
Experimental: (§1) In accordance with <Example 1>, each colon cancer cell line (SW480 and HCT116) and a non-cancer cell line (human embryonic kidney cells HEK293) were treated with a 25 μM GSK3β inhibitor (AR-A014418 or SB-216763) or GSK3β-specific RNA interference. As controls, DMSO was administered to these cells or the cells were treated with non-specific RNA interference. Subsequently, the frequency of senescent cells in control cells was compared with that in the corresponding cells in which GSK3β had been inhibited and then the result was analyzed. Furthermore, human telomerase reverse transcriptase (hTERT) mRNA expression that is a molecular indication of cell immortalization and changes in telomerase activity in these cells were compared and analyzed over time.
(§2) hTERT mRNA expression was analyzed by extracting total RNA from subject cells and then performing the RT-PCR method. An upstream primer (5′-[…]-3′: SEQ ID NO: 3) and a downstream primer (5′-GGATGAAGCGGAGTCTGGA-3′: SEQ ID NO: 4) were used for RT-PCR. The hTERT gene was amplified by performing 36 or 38 cycles of an RT-PCR program (15 seconds at 94° C., 10 seconds at 55° C., and 9 seconds at 72° C.). Telomerase activity was detected in accordance with recommended protocols using a commercial kit (TRAPEZE® Telomerase Detection Kit, Chemicon International). hTERT expression levels and telomerase activity in GSK3β-inhibited cells and control cells were determined via measurement and quantification of signals on electrophoresis using a densitometer (NIH Image Software), followed by comparison and analysis thereof.

[2] = tested on: telomerase activity in colon cancer cell lines (SW480 and HCT116); experiment: as above; format: cell-based, human; conditions: 25 μM inhibitor, 72 or 96 hours, FIG. 14
Experimental: as §1, §2

[3] = target: GSK3β immunoprecipitated from colon cancer cell lines (SW480 and HCT116) (Homo sapiens, UniProt P49841); experiment: Non-radioisotopic in vitro GSK3β enzyme activity assay; format: biochemical; conditions: 25 μM, compared with DMSO, FIG. 19
Sequence of GSK3β immunoprecipitated from colon cancer cell lines (SW480 and HCT116) (P49841 whole entry): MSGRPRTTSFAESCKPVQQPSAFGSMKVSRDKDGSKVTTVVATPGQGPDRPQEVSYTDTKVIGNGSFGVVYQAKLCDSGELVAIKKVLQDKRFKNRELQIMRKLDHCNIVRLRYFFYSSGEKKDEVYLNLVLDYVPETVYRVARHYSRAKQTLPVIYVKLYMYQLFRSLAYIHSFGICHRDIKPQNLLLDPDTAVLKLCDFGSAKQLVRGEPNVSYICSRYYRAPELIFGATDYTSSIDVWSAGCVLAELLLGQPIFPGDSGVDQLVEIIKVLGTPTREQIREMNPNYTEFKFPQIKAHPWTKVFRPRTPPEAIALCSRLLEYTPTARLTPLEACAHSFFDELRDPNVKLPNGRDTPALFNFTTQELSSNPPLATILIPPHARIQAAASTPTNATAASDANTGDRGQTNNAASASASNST
Experimental: First, a specific anti-GSK3β antibody and beads (resins) are added to a cell extract and then the GSK3β protein is immunoprecipitated (S in FIG. 16). As a negative control (control), non-specific mouse IgG with the same concentration is added to the same type of cell extract (C in FIG. 16). Next, in the presence of a kinase buffer, a recombinant human β-catenin protein (substrate) and nonradioactive ATP (P in FIG. 16) are added, and then a phosphorylation reaction is performed. Subsequently, the reaction solution is analyzed by the Western blot method. A phosphorylated human β-catenin protein is detected using an anti-phosphorylate β-catenin peptides antibody. […] In accordance with the methods in <Example 1>, the protein was extracted from each cell line using a cell lysis buffer (0.2 M Tris-HCl pH 7.5, 1.5 M NaCl, 10 mM EDTA, 10 mM EGTA, 10% Triton X-100, 25 mM sodium pyrophosphate, 10 mM β-glyceophosphate, 10 mM Na3VO4, and Protease inhibitors cocktail [Sigma-Aldrich]). […] Next, GSK3β and the recombinant human β-catenin protein in the reaction solutions were similarly detected by the Western blot method. […] These reaction solutions were similarly analyzed by the Western blot method.

[4] = tested on: glioblastoma cell line (A172, T98G, U251, and U87); experiment: Cell Proliferation ELISA BrdU incorporation; format: cell-based, human; conditions: glioblastoma cells; FIG. 10C
Experimental: (§3) Each cell line was cultured overnight and then cultured in medium to which AR-A014418 or SB-216763 dissolved in DMSO had been added to predetermined concentrations (5 μM, 10 μM, 25 μM or 40 μM, and 50 μM). Number of viable cells and apoptosis frequencies were measured over time. As controls, number of viable cells and apoptosis frequencies were also measured for cells that had been cultured after addition of the same amount of DMSO. In addition, unlike <Example 1>, a WST-8** assay kit (Cell Counting Kit-8, Wako, Osaka) and a microplate reader produced by Bio-Rad Laboratories, Inc. (Hercules, Calif.) were used for measurement of number of viable cells. Furthermore, regarding cell fractions during the proliferation phase, the number of cells incorporating bromodeoxy uridine (BrdU) was measured using a Cell Proliferation ELISA BrdU Kit (Roche, Panzberg, Germany), and then the influence of the GSK3β inhibitor (AR-A014418 or SB-216763) on the proliferation of tumor cells was analyzed.

[5] = tested on: HEK293 cells; experiment: Apoptosis (Hoechst staining) and proliferation (PCNA labeling index) by double staining; format: cell-based, human; conditions: for changes in apoptosis frequency: FIG. 4C; for changes in cellular proliferation rates (PCNA labeling index): FIG. 4D
Experimental: (§4) A, B, and E: The number of viable cells in each well as measured by MTS assay at points in time at which the indicated lengths of the time (24, 48, 72, and 96 hours) had elapsed since day 0. C and D: The proportion (D) of proliferating cells' nuclei (PCNA positive) in all the cells observed or the proportion (C) of nuclei undergoing apoptosis in all the cells observed when the cells were subjected to double staining by an immunofluorescence method using an anti-PCNA (proliferating cell nuclear antigen) antibody and Hoechst and then observed under a fluorescence microscope.

[6] = tested on: colon cancer cells; experiment: as above; format: cell-based, human; conditions: for cellular proliferation rates (PCNA labeling index): FIG. 4D; for apoptosis frequency: Hoechst staining, FIG. 4C
Experimental: as §4

[7] = tested on: glioblastoma cell line (A172, T98G, U251, and U87); experiment: WST-8 viable cell assay; format: cell-based, human; conditions: 5-50 μM, compared with DMSO, FIGS. 9, 10A
Experimental: as §3, with “In this example, 4 types of glioblastoma” for “Each”, “(A172, T98G, U251,” for “was cultured overnight”, “U87 purchased from American Type Culture Collection [ATCC, Manassas, Va.]) and human embryonic kidney cells HEK293 were used as subjects. The expression of GSK3β and the expression of its fractions that had undergone phosphorylation” for “then cultured”, “these cell lines were analyzed in accordance with <Example 1>. Furthermore, the effects of a known GSK3β inhibitor (AR-A014418 or SB-216763) on the survival, proliferation, and apoptosis of tumor cells were analyzed in a manner similar” for “medium”, “that” for “which AR-A014418 or SB-216763 dissolved”, “the case of colon cancer cells. […]” for “DMSO had been added to predetermined concentrations (5 μM, 10 μM, 25 μM or 40 μM, and 50 μM).”

[8] = tested on: human telomerase reverse transcriptase (hTERT) in colon cancer cell lines (SW480 and HCT116); experiment: hTERT mRNA expression by RT-PCR; format: cell-based; conditions: 25 μM inhibitor, 72 or 96 hours, FIG. 13
Experimental: as §1, §2

[9] = tested on: human telomerase reverse transcriptase (hTERT) in HEK293 cells; experiment: hTERT mRNA expression by RT-PCR; format: cell-based; conditions: 25 μM inhibitor, FIG. 13
Experimental: as §1, §2

[10] = tested on: HEK293 cells; experiment: MTS viable cell assay (cell survival); format: cell-based, human; conditions: FIG. 4A
Experimental: (§5) Each colon cancer cell line and HEK293 cells were seeded at 3×10^3 cells per well of 96-well culture plates and then cultured overnight in corresponding media (this day was designated day 0). Known GSK3β inhibitors, AR-A014418 (N-(4-methoxybenzyl)-N′-(5-nitro-1,3-thiazol-2-yl)urea, Calbiochem) and SB-216763 (3-(2,4-dichlorophenyl)-4-(1-methyl-1H-indol-3-yl)-1H-pyrrole-2,5-dione, Sigma-Aldrich) were dissolved in dimethyl sulfoxide (DMSO). On day 0, the medium for each cell line were exchanged and then AR-A014418 or SB-216763 was added to the medium to different concentrations (5, 10, 25, and 50 μM). As controls, samples prepared by adding AR-A014418 or SB-216763 to the same concentrations to wells containing no cells and a sample prepared by adding DMSO alone to a well containing cells were analyzed simultaneously.
(§6) At time points after indicated lengths of the times (24, 48, 72, and 96 hours) had elapsed from day 0, the number of viable cells in each well was measured using an MTS* viable cell measurement kit (CellTiter 96™ Aqueous, Promega Corp) in accordance with the protocols of Promega. Practically, 20 μL of an MTS mixture solution that had been prepared immediately before addition was added to each well, followed by three hours of reaction at 37° C. under 5% CO2 wet conditions. Absorbance at a wavelength of 490 nm was measured using a THERMOmax microplate reader (Molecular Devices). The number of cells of each cell line (in 6 wells for treatment by each concentration of AR-A014418 or SB-216763) was measured, and the average absorbance was calculated to determine the number of viable cells.

[11] = tested on: Colon cancer cell lines (SW480 and HCT116); experiment: MTS viable cell assay (cell survival); format: cell-based, human; conditions: 5, 10, 25, and 50 μM, 24-96 hours, FIG. 4A
Experimental: as §5, §6

[12] = tested on: colon cancer cell line (SW480 and HCT116); experiment: Cellular senescence by x-gal staining; format: cell-based, human; conditions: colon cancer cell lines; 25 μM; 72 hours; compared with DMSO; FIGS. 11 and 12
Experimental: (§7) In accordance with <Example 1>, each colon cancer cell line (SW480 and HCT116) and a non-cancer cell line (human embryonic kidney cells HEK293) were treated with a 25 μM GSK3β inhibitor (AR-A014418 or SB-216763) or GSK3β-specific RNA interference. As controls, DMSO was administered to these cells or the cells were treated with non-specific RNA interference. Subsequently, the frequency of senescent cells in control cells was compared with that in the corresponding cells in which GSK3β had been inhibited and then the result was analyzed. Furthermore, human telomerase reverse transcriptase (hTERT) mRNA expression that is a molecular indication of cell immortalization and changes in telomerase activity in these cells were compared and analyzed over time. Senescent cells were determined as cells found to be positive for x-gal staining that is an indicator of (3-galactosidase activity. Practically, for this staining, cells cultured on cover glasses were washed with phosphate buffered saline (PBS) and then fixed using a citrate.phosphate fixation solution (0.1 M citric acid, 0.2 M Na2HPO4, pH 6.0) at room temperature for 5 minutes. Subsequently, cells were washed twice with PBS and then caused to react using a x-gal staining solution (1 mg/mL x-gal [Sigma-Aldrich], 5 mM K3Fe[CN]6, 2 mM MgCl2, 150 mM NaCl, 30 mM citrate.phosphate buffer, and 5 mM K4Fe[CN]6) at 37° C. for 20 hours. Stained cells were washed with PBS and then fixed again with 4% paraformaldehyde. X-gal staining positive cells were identified by observation under a light microscope. The frequency of senescent cells was determined by observing 5 high-power fields and measuring and calculating the average frequency of x-gal staining positive cells in the total number of cells (approximately 100 cells) in each field.

[13] = tested on: HEK293 cells; experiment: Cellular senescence by x-gal staining; format: cell-based, human; conditions: 25 μM, 72 hours, compared with DMSO
Experimental: as §7

[14] = tested on: HEK293 cells; experiment: Apoptosis frequency; format: cell-based, human; conditions: compared with DMSO, FIG. 10B
Experimental: as §3, with “In this example, 4 types of glioblastoma cell line (A172, T98G, U251, and U87 purchased from American Type Culture Collection [ATCC, Manassas, Va.]) and human embryonic kidney cells HEK293 were used as subjects. The expression of GSK3β and the expression of its fractions that had undergone phosphorylation in these cell lines were analyzed in accordance with <Example 1>. Furthermore, the effects of a known GSK3β inhibitor (AR-A014418 or SB-216763) on the survival, proliferation, and apoptosis of tumor cells were analyzed in a manner similar to that in the case of colon cancer cells. Each” for “Each”

[15] = tested on: glioblastoma cell line (A172, T98G, U251, and U87); experiment: Apoptosis frequency; format: cell-based, human; conditions: glioblastoma cells; compared with DMSO; FIG. 10B
Experimental: as §3, with “In this example, 4 types of glioblastoma cell line (A172, T98G, U251, and U87 purchased from American Type Culture Collection [ATCC, Manassas, Va.]) and human embryonic kidney cells HEK293 were used as subjects. The expression of GSK3β and the expression of its fractions that had undergone phosphorylation in these cell lines were analyzed in accordance with <Example 1>. Furthermore, the effects of a known GSK3β inhibitor (AR-A014418 or SB-216763) on the survival, proliferation, and apoptosis of tumor cells were analyzed in a manner similar to that in the case of colon cancer cells. Each” for “Each”

## COc1ccc(CNC(=O)Nc2ncc([N+](=O)[O-])s2)cc1 [AR-A014418, N-(4-methoxybenzyl)-N′-(5-nitro-1,3-thiazol-2-yl)urea]
[1]
  telomerase activity: nor suppression of telomerase activity
[2]
  telomerase activity: suppressed
[3]
  GSK3β activity (phosphorylation of recombinant human β-catenin): completely inhibited
[4]
  proliferation (BrdU incorporated): suppressed
[5]
  changes in apoptosis frequency: minimal
  changes in cellular proliferation rates (PCNA labeling index): minimal
[6]
  cellular proliferation rates (PCNA labeling index): lowered
  apoptosis frequency: increased
[7]
  number of viable cells: decreased in a manner depending on the concentration of each inhibitor
[8]
  hTERT expression: suppressed
[9]
  hTERT expression: neither changes in hTERT expression
[10]
  effect to suppress cell survival: not observed
[11]
  survival (rate) of cells: decreased in a manner depending on the dose
[12]
  frequencies of senescent cells (x-gal staining positive): significantly increased
[13]
  frequency of senescent cells (x-gal staining positive): no significant differences
[14]
  apoptosis: mildly induced by the addition of the GSK3β inhibitor to the medium, but no significant differences were observed
[15]
  apoptosis: significantly induced

## Cn1cc(C2=C(c3ccc(Cl)cc3Cl)C(=O)NC2=O)c2ccccc21 [SB-216763, 3-(2,4-Dichlorophenyl)-4-(1-methyl-1H-indol-3-yl)-1H-pyrrole-2,5-dione]
[1]
  telomerase activity: nor suppression of telomerase activity
[2]
  telomerase activity: suppressed
[3]
  GSK3β activity (phosphorylation of recombinant human β-catenin): completely inhibited
[4]
  proliferation (BrdU incorporated): suppressed
[5]
  changes in apoptosis frequency: minimal
  changes in cellular proliferation rates (PCNA labeling index): minimal
[6]
  cellular proliferation rates (PCNA labeling index): lowered
  apoptosis frequency: increased
[7]
  number of viable cells: decreased in a manner depending on the concentration of each inhibitor
[8]
  hTERT expression: suppressed
[9]
  hTERT expression: neither changes in hTERT expression
[10]
  effect to suppress cell survival: not observed
[11]
  survival (rate) of cells: decreased in a manner depending on the dose
[12]
  frequencies of senescent cells (x-gal staining positive): significantly increased
[13]
  frequency of senescent cells (x-gal staining positive): no significant differences
[14]
  apoptosis: mildly induced by the addition of the GSK3β inhibitor to the medium, but no significant differences were observed
[15]
  apoptosis: significantly induced

— patent US20100105745A1, “Suppression of cancer and method for evaluating anticancer agent based on the effect of inhibiting gsk3 beta” (priority 2005, published 2010)
